Earlier results, collected in patent US20120156286A1, “COMPOSITIONS AND METHODS FOR INCREASED DELIVERY OF COENZYME Q10” (IMAGENETIX, INC., priority 2010, published 2012).

Settings: in vivo

Question: With `COC1=C(OC)C(=O)C(C/C=C(\C)CC/C=C(\C)CC/C=C(\C)CC/C=C(\C)CC/C=C(\C)CC/C=C(\C)CC/C=C(\C)CC/C=C(\C)CC/C=C(\C)CCC=C(C)C)=C(C)C1=O` [CoQ10, Coenzyme Q10] as the compound, how does the Intestinal absorption read?
Answer: less than 10%
